Data as given in article PMC10996005, “Identification and Development of Cyclic Peptide Inhibitors of Hypoxia Inducible Factors 1 and 2 That Disrupt Hypoxia-Response Signaling in Cancer Cells” (Journal of the American Chemical Society, 2024).
Where a SMILES comes first, the peptide text is derived from it. [ ]: non-standard residue; d: D form. Phe(4-Br) = N[C@@H](Cc1ccc(Br)cc1)C(=O)O; Phe(4-CN) = N#Cc1ccc(C[C@H](N)C(=O)O)cc1; Phe(4-Cl) = N[C@@H](Cc1ccc(Cl)cc1)C(=O)O; Phe(4-I) = N[C@@H](Cc1ccc(I)cc1)C(=O)O; hPhe = N[C@@H](CCc1ccccc1)C(=O)O; 4Pal = N[C@@H](Cc1ccncc1)C(=O)O; Pen = CC(C)(S)[C@H](N)C(=O)O; Nva = CCC[C@H](N)C(=O)O

How the values were obtained:
HIF-1α PAS-B domain = biological target: T1, HIF-1α PAS-B domain (Homo sapiens, UniProt Q16665); test: MST binding to the PAS-B domain of HIF-1α; conditions: for Kd: MST, mean ± SEM, n = 2 (n = 1 for most C1 analogues, n = 3 in Figure S2), read-out: KD for HIF-1α PAS-B
T1 construct: made in house
Protocol: (§1) All reagents were purchased from Fisher Scientific or Sigma Aldrich UK unless specified otherwise.
(§2) Restriction enzymes and microbiology reagents were purchased from New England Biolabs Inc., Fisher Scientific (UK) or Promega (UK) and were used as directed by the manufacturer. Primers and oligonucleotides were synthesised by Integrated DNA Technologies (UK). DNA sequencing was carried out by Eurofins MWG Operon (Germany).
(§3) Construction of the RTHS and SICLOPPS library, screening, purification of recombinant HIF proteins, and the PLA was conducted as previously described in Miranda et al., J. Am. Chem. Soc., 2013, 135(28); […]
(§4) Protein labelling with MST dye
(§5) Protein was buffer exchanged from storage buffer into labelling buffer (0.1 M NaHCO3, pH 8.5) using a PD spintrap G-25 column (GE healthcare). The protein concentration was then adjusted to 20 µM.
(§6) The commercially sourced MST dye (NanoTemper) was prepared as a 470 µM solution in DMSO, which was then further diluted to 60 µM using labelling buffer. To the protein solution was added an equal volume of dye solution, and the labelling reaction was left for 1 hour in the dark at room temperature.
(§7) The labelled protein was separated from unreacted dye by elution through a PD minitrap G-25 column (GE healthcare). Labelled protein was then aliquoted and stored at -80 °C. Extent of labelling was measured by the absorbance obtained using the UV-vis mode on a NanoDrop ND-1000 Spectrophotometer (NanoDrop Technologies, USA).
(§8) Labelled protein was thawed on ice and diluted to 50 nM in assay buffer containing 50 mM Tris pH 8.0, 150 mM NaCl, 5% (v/v) glycerol, 1 mM TCEP and 0.05% TWEEN-20. The protein solution was then centrifuged at 12000 rpm for 15 minutes at 4 °C and left on ice. Compounds were prepared and serially diluted in DMSO at 10x assay concentration, before diluting to 2x assay concentration in assay buffer.
(§9) The 2x compound solutions were then mixed 1:1 (v/v) with 50 nM labelled protein solution and left to incubate for 1 hour at room temperature. Solutions were then loaded into Monolith NT.115 Premium Capillaries (NanoTemper) and placed in the sample tray. MST experiments were carried out

HIF-2α PAS-B domain = biological target: T2, HIF-2α PAS-B domain (Homo sapiens, UniProt Q99814); test: MST binding to the PAS-B domain of HIF-2α; conditions: MST; mean (n = 2) ± SEM
T2 construct: made in house
Protocol: as §1, §2, §3, §4, §5, §6, §7, §8, §9

T1 sequence (Q16665 238-349 limits assumed): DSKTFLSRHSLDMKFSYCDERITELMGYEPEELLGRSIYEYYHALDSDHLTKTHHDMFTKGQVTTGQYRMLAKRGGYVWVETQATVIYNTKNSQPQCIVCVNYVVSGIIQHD
T2 sequence (Q99814 240-350 limits assumed): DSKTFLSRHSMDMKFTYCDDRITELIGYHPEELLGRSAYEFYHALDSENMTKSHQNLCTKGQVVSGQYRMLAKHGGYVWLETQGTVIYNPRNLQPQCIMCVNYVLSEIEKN

Row | Kd (HIF-1α PAS-B domain) [µM] | SMILES | further results
1 | 5.7 ± 0.9 | CC[C@H](C)[C@@H]1NC(=O)[C@H](CC(C)C)NC(=O)[C@H](CCCNC(=N)N)NC(=O)[C@H](C(C)(C)S)NC(=O)[C@H](Cc2ccccc2)NC(=O)[C@H]([C@@H](C)CC)NC1=O [Pen, cyclo-PenRLIIF] (cyclo(F[Pen]RLII)) | 
2 | 21.5 ± 3 | CC[C@H](C)[C@H](NC(C)=O)C(=O)N[C@@H](Cc1ccc(I)cc1)C(=O)N[C@@H](CS)C(N)=O [Ac-I(4-iodo)FC-NH2] (Ac-Ile-[Phe(4-I)]-Cys-NH2) | improvement in HIF-1α affinity over the parent tripeptide (HIF-1α PAS-B domain; MST KD ratio vs Ac-IFC-NH2): ~3 fold
3 | 22.1 ± 2.6 | CCC[C@@H]1NC(=O)[C@H]([C@@H](C)CC)NC(=O)[C@H](CC(C)C)NC(=O)[C@H](CCCNC(=N)N)NC(=O)[C@H](CS)NC(=O)[C@H](Cc2ccccc2)NC1=O [Nva, cyclo-CRLINvaF] (cyclo(CRLI[Nva]F)) | 
4 | 1.2 ± 0.3 | CC[C@H](C)[C@@H]1NC(=O)[C@H](CC(C)C)NC(=O)[C@H](CCCNC(=N)N)NC(=O)[C@H](CS)NC(=O)[C@H](Cc2ccc(Cl)cc2)NC(=O)[C@H]([C@@H](C)CC)NC1=O [Cl, cyclo-CRLII(4-Cl)F] (cyclo(CRLII[Phe(4-Cl)])) | 
5 | 7.4 ± 0.1 | CC[C@H](C)[C@@H]1NC(=O)[C@H](CC(C)C)NC(=O)[C@H](CCCNC(=N)N)NC(=O)[C@H](CS)NC(=O)[C@H](Cc2ccc(O)cc2)NC(=O)[C@H]([C@@H](C)CC)NC1=O [OH, cyclo-CRLIIY] (cyclo(CRLIIY)) | 
6 |  | CC[C@H](C)[C@@H]1NC(=O)[C@H](CC(C)C)NC(=O)[C@H](CCCNC(=N)N)NC(=O)[C@H](CS)NC(=O)[C@H](Cc2ccncc2)NC(=O)[C@H]([C@@H](C)CC)NC1=O [4-Pal, cyclo-CRLII(4-Pal)] (cyclo([4Pal]CRLII)) | loss of affinity (KD) compared to cyclo-CRLIIF (HIF-1α PAS-B domain; MST KD ratio): ~11 fold
7 | 15.9 ± 0.3 | CC[C@H](C)[C@@H]1NC(=O)[C@H](CC(C)C)NC(=O)[C@H](CCCNC(=N)N)NC(=O)[C@H](CS)NC(=O)[C@H](Cc2ccccc2)NC(=O)[C@H](C(C)C)NC1=O [V, cyclo-CRLIVF] (cyclo(CRLIVF)) | 
8 |  | CC[C@H](C)[C@@H]1NC(=O)[C@H](CC(C)C)NC(=O)[C@H](CCCNC(=N)N)NC(=O)[C@H](CS)NC(=O)[C@H](Cc2ccccc2)NC(=O)[C@H]([C@@H](C)CC)NC1=O [cyclo-CRLIIF] (cyclo(CRLIIF)) | Kd (HIF-2α PAS-B domain): 10.9 ± 1.1 µM
9 | 1 ± 0.2 | CC[C@H](C)[C@@H]1NC(=O)[C@H](CC(C)C)NC(=O)[C@H](CCCNC(=N)N)NC(=O)[C@H](CS)NC(=O)[C@H](Cc2ccc(Br)cc2)NC(=O)[C@H]([C@@H](C)CC)NC1=O [Br, cyclo-CRLII(4-Br)F] (cyclo(CRLII[Phe(4-Br)])) | 
10 |  | CC[C@H](C)[C@H](NC(C)=O)C(=O)N[C@@H](Cc1ccccc1)C(=O)N[C@@H](CS)C(N)=O [Ac-IFC-NH2] (Ac-Ile-Phe-Cys-NH2) | loss of affinity (KD) compared to cyclo-CRLIIF (HIF-1α PAS-B domain; MST KD ratio): ~10 fold
11 | > 100 | CC[C@H](C)[C@@H]1NC(=O)[C@H](CC(C)C)NC(=O)[C@H](CCCNC(=N)N)NC(=O)[C@H](CO)NC(=O)[C@H](Cc2ccccc2)NC(=O)[C@H]([C@@H](C)CC)NC1=O [S, cyclo-SRLIIF] (cyclo(FSRLII)) | 
12 | 4.4 ± 0.1 | CC[C@H](C)[C@@H]1NC(=O)[C@H](CC(C)C)NC(=O)[C@H](CCCNC(=N)N)NC(=O)[C@H](CS)NC(=O)[C@H](Cc2ccc(C#N)cc2)NC(=O)[C@H]([C@@H](C)CC)NC1=O [CN, cyclo-CRLII(4-CN)F] (cyclo(CRLII[Phe(4-CN)])) | 
13 | 1.2 ± 0.7 | CC[C@H](C)[C@@H]1NC(=O)[C@H](CC(C)C)NC(=O)[C@H](CCCNC(=N)N)NC(=O)[C@H](CS)NC(=O)[C@H](CCc2ccccc2)NC(=O)[C@H]([C@@H](C)CC)NC1=O [hF, cyclo-CRLIIhF] (cyclo(CRLII[hPhe])) | improvement in HIF-1α binding affinity compared to the parent cyclic peptide cyclo-CRLIIF (HIF-1α PAS-B domain; MST KD ratio): 3 fold
14 | 11.4 ± 0.4 | CC[C@H](C)[C@@H]1NC(=O)[C@H](CC(C)C)NC(=O)[C@H](CCCNC(=N)N)NC(=O)[C@H](CS)NC(=O)[C@H](Cc2ccccc2)NC(=O)[C@H](CC(C)C)NC1=O [L, cyclo-CRLILF] (cyclo(CRLILF)) | 
15 | > 100 | CC[C@H](C)[C@@H]1NC(=O)[C@H](CC(C)C)NC(=O)[C@H](CCCNC(=N)N)NC(=O)[C@H]([C@@H](C)O)NC(=O)[C@H](Cc2ccccc2)NC(=O)[C@H]([C@@H](C)CC)NC1=O [T, cyclo-TRLIIF] (cyclo(FTRLII)) | 
